Data set [1] concerns the target T1, human platelet system (thromboxane receptor sites) (Homo sapiens, UniProt P21731).
T1 construct: Washed platelets are prepared by centrifugation; endogenous in cells; host or cells: washed human platelets
T1 sequence (P21731 1-343): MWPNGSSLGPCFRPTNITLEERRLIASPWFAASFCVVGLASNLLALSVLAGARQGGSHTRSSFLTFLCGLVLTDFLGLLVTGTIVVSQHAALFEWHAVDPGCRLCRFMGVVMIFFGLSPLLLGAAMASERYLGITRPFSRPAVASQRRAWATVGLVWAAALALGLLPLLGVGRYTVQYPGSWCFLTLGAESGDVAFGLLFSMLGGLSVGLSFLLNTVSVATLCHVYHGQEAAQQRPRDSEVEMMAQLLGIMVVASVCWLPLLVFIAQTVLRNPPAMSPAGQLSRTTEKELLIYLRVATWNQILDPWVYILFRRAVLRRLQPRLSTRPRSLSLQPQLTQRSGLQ
Description: Human platelet system: antagonism of 11,9-(epoxymethano) PGH2-induced aggregation of washed platelets (Gaddum-Schild KB). The format is cell-based. Conditions: agonist 11,9-(epoxymethano) PGH2, compound added 5 minutes before agonist, read-out: affinity constant KB (converted). On the procedure:
Washed platelets are prepared by centrifugation of plateletrich human plasma at 600×g for 20 minutes. The platelet pellet is resuspended in Ca^++ -free Kreb's solution.
Addition of the agonist 11.9-(epoxymethano) PGH2 (1×10^-7 to 5×10^-7 M) causes immediate aggregation recorded as an increase in light transmission (600 nm). In a second experiment the compound under test is added 5 minutes previous to the addition of the PGH2 analogue. The dose of the PGH2 analogue added is then increased to a level which gives a similar response to that obtained in the absence of antagonist.
(§1) In the case of each system, the affinity constant, KB, for the compound under test is calculated according to the Gaddum-Schild equation (based on Law of Mass Action). [formula]

The subject of another data set is human platelet system. Description: Prostacyclin-like activity in human platelet system (antagonism of ADP). The format is cell-based.
A further data set concerns the target T2, rabbit aorta (Oryctolagus cuniculus, UniProt Q6WQI8).
T2 construct: functional antagonism of U46619 contraction
T2 sequence (Q6WQI8 1-233): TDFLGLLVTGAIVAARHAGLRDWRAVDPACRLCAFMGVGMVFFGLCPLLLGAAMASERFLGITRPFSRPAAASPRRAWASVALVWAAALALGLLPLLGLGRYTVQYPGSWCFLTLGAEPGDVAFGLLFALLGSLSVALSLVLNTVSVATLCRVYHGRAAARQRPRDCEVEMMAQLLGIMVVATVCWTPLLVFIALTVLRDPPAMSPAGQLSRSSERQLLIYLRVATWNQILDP
The data set can be described thus: Rabbit aorta system: antagonism of 11,9-(epoxymethano) PGH2 tension response in thoracic aorta strips (Gaddum-Schild KB). Conditions: agonist 11,9-(epoxymethano) PGH2; compound added 30 minutes before agonist; head KB × 10^-6. It counts as cell-based. On the procedure:
Spiral strips of thoracic aorta are suspended in Kreb's Henseleit solution and aerated with 95% O2 /5% CO2 at 37° C. Tension changes are recorded with a Grass FT03 force transducer. Initially, cumulative dose response curves to 11,9-(epoxymethanol) PGH2 (2×10^-9,1×10^-8, […] and 2.5×10^-7 M) are obtained. In a second experiment the individual compounds are added 30 minutes previous to the addition of the series of agonist doses.
as §1

Data set [2] concerns guinea pig bronchoconstriction. The data set can be described thus: Modified Konzett-Rossler test: inhibition of PGH2 analogue-induced bronchoconstriction in anaesthetised guinea pig. The format is in vivo. On the procedure:
A male albino guinea pig is anaethetised with a mixture of allyl barbituric acid and ethyl carbamate and the guinea pig is given intravenously a dose of 0.35 μg/kg of 11,9-(epoxymethane) PGH2. After a further period of 10 minutes, the guinea pig is treated intravenously with a dose of 0.3 mg/kg of trans-5-(6'-carboxy-5'-oxahexyl)-6-(1'-[N-phenylthiocarbamoyl-hydrazono]-ethyl-bicyclo [2,2,2] octane.
The guinea pig is then used in a modified Konzett-Rossler test which gives a measure of the inhibition produced by the test compound of the bronchoconstiction resulting from administration of the PGH2 derivative. This test involves artificially respiring the animals and measuring the amount of residual air with a pressure transducer.

Another data set has as its target T3, guinea pig trachea (Cavia porcellus, UniProt A0A286Y4I8).
T3 construct: from tissue; host or cells: guinea pig trachea, spiral strips
T3 sequence (A0A286Y4I8 1-347): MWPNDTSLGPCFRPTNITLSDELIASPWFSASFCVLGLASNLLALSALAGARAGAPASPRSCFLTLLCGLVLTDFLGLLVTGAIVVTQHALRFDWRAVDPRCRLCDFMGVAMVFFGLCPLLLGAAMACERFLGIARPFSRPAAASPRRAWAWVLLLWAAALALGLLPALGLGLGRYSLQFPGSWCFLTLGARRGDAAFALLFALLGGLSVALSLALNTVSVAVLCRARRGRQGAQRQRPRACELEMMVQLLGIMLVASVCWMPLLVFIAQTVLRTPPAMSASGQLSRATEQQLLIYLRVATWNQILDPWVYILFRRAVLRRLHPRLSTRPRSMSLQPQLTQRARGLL
The data set can be described thus: Guinea pig trachea system: antagonism of 11,9-(epoxymethano) PGH2 tension response in trachea strips (Gaddum-Schild KB). The settings on record: agonist 11,9-(epoxymethano) PGH2; compound added 50 minutes before agonist; head KB × 10^-6. It counts as cell-based. On the procedure: Spiral strips of trachea are suspended in Kreb's-Henseleit solution, additionally containing atropine sulphate (2×10^-8 M) and indomethacin (10^-6 M), aerated with 95% O2 /5% CO2 and maintained at 37° C. Tension changes are recorded with a Grass FT03 force transducer. Initially, cumulative dose response curves to the agonist 11,9-(epoxymethano) PGH2 are obtained (typically at the same concentrations as for the rabbit aorta system). In a second experiment, the compound under test is added 50 minutes previous to the addition of the series of agonist doses.
as §1

For orientation: Kb means the affinity of an antagonist, worked out from how it opposes an agonist.

With `CC(=NNC(=S)Nc1ccccc1)[C@@H]1[C@H]2CC[C@H](C2)[C@H]1C/C=C\CCCC(=O)O` (relative stereo) [5-endo-(6'-carboxyhex-2'-Z-enyl)-6-exo-(1'-[N-(phenylthiocarbamoyl)-hydrazono]-ethyl-bicyclo [2,2,1]heptane, reference compound], in data set [1], the antagonist dissociation constant (Kb) is 0.0143 µM. With `CC(=NOC(c1ccccc1)c1ccccc1)[C@@H]1C2CCC(CC2)[C@H]1CCCCOCC(=O)O` (relative stereo) [Example 3, trans-5-(6'-Carboxy-5'-oxahexyl)-6-[1'-(O-diphenylmethoxyimino)ethyl]-bicyclo [2,2,2] octane], the “prostacyclin-like activity as evidenced by antagonism of ADP” value in the data set on human platelet system was “very little prostacyclin-like activity”. Turning to `CC(=NNC(=S)Nc1ccccc1)[C@@H]1C2CCC(CC2)[C@H]1CCCCOCC(=O)O` (relative stereo) [Example 4, trans-5-(6'-Carboxy-5'-oxahexyl)-6-(1'-[N-(phenylthiocarbamoyl)-hydrazono]-ethyl)-bicyclo [2,2,2] octane], the Kb on rabbit aorta is 0.167 µM; in data set [1] it was 0.00476 µM. The “inhibition of bronchoconstriction resulting from the PGH2 analogue” value in data set [2] (0.3 mg/kg intravenous, 11,9-(epoxymethano) PGH2 0.35 μg/kg i.v.) is “markedly blocked the action of the PGH2 analogue”. Besides, in data set [2] (0.3 mg/kg, control without prior administration of PGH2 analogue), the “bronchoconstriction caused by compound itself” value is on record as “did not itself lead to any observable bronchoconstriction”. `COc1ccc(NC(=O)NN=C(C)[C@@H]2C3CCC(CC3)[C@H]2CCCCOCC(=O)O)cc1` (relative stereo) [Example 5, trans-5-(6'-Carboxy-5'-oxahexyl)-6-(7'-[N-(p-methoxyphenyl-carbamoyl)-hydrazono]-ethyl)-bicyclo [2,2,2] octane] had an antagonist dissociation constant (Kb) at guinea pig trachea of roughly 0.00025 µM. For the compound `CCCCCCNC(=S)NN=C(C)[C@@H]1C2CCC(CC2)[C@H]1CCCCOCC(=O)O` (relative stereo) [Example 6, trans-5-(6'-Carboxy-5'-oxahexyl)-6'-(1'-[N-(hexylthiocarbamoyl)-hydrazono]-ethyl)-bicyclo [2,2,2] octane], the Kb on guinea pig trachea was 0.0143 µM. For `CC(=NNC(=S)Nc1ccccc1)[C@@H]1C2CCC(CC2)[C@H]1CCCCCOCC(=O)O` (relative stereo) [Example 8, trans-5-(7'-Carboxy-6'-oxaheptyl)-6-(1'-[N-(phenylthiocarbamoyl)-hydrazano]-ethyl)-bicyclo [2,2,2] octane], the Kb at rabbit aorta was 0.192 µM; on guinea pig trachea it was 0.0037 µM. On to `O=C(O)COCCOC[C@@H]1[C@@H]2CC[C@@H](C2)[C@H]1C=NOC(c1ccccc1)c1ccccc1` (relative stereo) [Example 10], for which the figures for the Kb on rabbit aorta and on guinea pig trachea were 0.294 µM and 0.0179 µM, respectively.

The values are drawn from US5077309A, “Prostaglandins” (National Research Development Corporation, priority 1986, dated 1991).
